Measured values taken from US20200199102A1, “COMPOUNDS THAT PARTICIPATE IN COOPERATIVE BINDING AND USES THEREOF” (Revolution Medicines, Inc., priority 2017, published 2020).
Where a SMILES comes first, the peptide text is derived from it. [ ]: non-standard residue; d: D form. MeBmt = C/C=C/C[C@@H](C)[C@@H](O)[C@H](NC)C(=O)O; NMeY = CN[C@@H](Cc1ccc(O)cc1)C(=O)O; NMeF = CN[C@@H](Cc1ccccc1)C(=O)O; NMeI = CC[C@H](C)[C@H](NC)C(=O)O; NMeT = CN[C@H](C(=O)O)[C@@H](C)O; NMeL = CN[C@@H](CC(C)C)C(=O)O; dNMeV = CN[C@@H](C(=O)O)C(C)C; NMeNle = CCCC[C@H](NC)C(=O)O; Tle = CC(C)(C)[C@H](N)C(=O)O; NMeNva = CCC[C@H](NC)C(=O)O; NMeV = CN[C@H](C(=O)O)C(C)C; NMeA = CN[C@@H](C)C(=O)O; dNMeA = CN[C@H](C)C(=O)O; Abu = CC[C@H](N)C(=O)O; Sar = CNCC(=O)O

Biological target: T1, Cyclophilin A (Homo sapiens, UniProt P62937)
T1 construct: made in house
Assay: AlphaLISA inhibition of binding of biotinylated Cyclosporin A to FLAG tagged Cyclophilin A
Details: for % signal: AlphaLISA signal; for % signal / % inhibition of CsA binding to Cyclophilin A: test concentration not given; for IC50: read-out: IC50 value of CsA binding to Cyclophilin A
Method in brief: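 Inhibition of biotin-CsA binding to FLAG-tagged Cyclophilin A read by AlphaLISA (ex 680, em 615 nm). Working stocks were 6 nM biotinylated CsA and 25 nM FLAG-CypA; beads and compound were combined first for 30 min, then protein added for 60 min, all at room temperature in the dark, with DMSO and cyclosporin A controls.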

T1 sequence (P62937 whole entry, species assumed): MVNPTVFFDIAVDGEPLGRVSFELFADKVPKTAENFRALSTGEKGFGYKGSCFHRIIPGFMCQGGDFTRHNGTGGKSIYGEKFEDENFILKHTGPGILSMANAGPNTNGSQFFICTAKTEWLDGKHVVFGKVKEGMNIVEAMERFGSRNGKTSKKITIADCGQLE

Row | % signal [%] | IC50 [nM] | % inhibition of CsA binding to Cyclophilin A [%] | SMILES
1 | 0.27 | < 2000 | 99.73 | C/C=C/C[C@@H](C)[C@@H](O)[C@H]1C(=O)N[C@@H](CC)C(=O)N(C)CC(=O)N(C)[C@@H](C(C)C)C(=O)N[C@@H](CC(C)C)C(=O)N(C)[C@@H](CC(C)C)C(=O)N[C@@H](CC(C)C)C(=O)N[C@H](C)C(=O)N(C)[C@@H](CC(C)C)C(=O)N(C)[C@@H](CC(C)C)C(=O)N(C)[C@@H](C(C)C)C(=O)N1C [Compound C65] (cyclo([MeBmt][Abu][Sar][NMeV]L[NMeL]L[dA][NMeL][NMeL][NMeV]))
2 | 10.95 | < 2000 | 89.05 | C/C=C/C[C@@H](C)[C@@H](O)[C@H]1C(=O)N[C@@H](CC)C(=O)N(C)CC(=O)N(C)[C@@H](CCC)C(=O)N[C@@H](CC(C)C)C(=O)N(C)[C@@H](CC(C)C)C(=O)N[C@@H](CC(C)C)C(=O)N[C@H](C)C(=O)N(C)[C@@H](CC(C)C)C(=O)N(C)[C@@H](CC(C)C)C(=O)N(C)[C@@H](C(C)C)C(=O)N1C [Compound C66] (cyclo([MeBmt][Abu][Sar][NMeNva]L[NMeL]L[dA][NMeL][NMeL][NMeV]))
3 | 40.86 | < 2000 | 59.14 | C/C=C/C[C@@H](C)[C@@H](O)[C@H]1C(=O)N[C@@H](CC)C(=O)N(C)CC(=O)N(C)[C@H](C(C)C)C(=O)N[C@@H](CC(C)C)C(=O)N(C)[C@@H](CC(C)C)C(=O)N[C@@H](CC(C)C)C(=O)N[C@H](C)C(=O)N(C)[C@@H](CC(C)C)C(=O)N(C)[C@@H](CC(C)C)C(=O)N(C)[C@@H](C(C)C)C(=O)N1C [Compound C67] (cyclo([MeBmt][Abu][Sar][dNMeV]L[NMeL]L[dA][NMeL][NMeL][NMeV]))
4 | 20.46 | < 2000 | 79.54 | C/C=C/C[C@@H](C)[C@@H](O)[C@H]1C(=O)N[C@@H](CC)C(=O)N(C)CC(=O)N(C)[C@@H](CCCC)C(=O)N[C@@H](CC(C)C)C(=O)N(C)[C@@H](CC(C)C)C(=O)N[C@@H](CC(C)C)C(=O)N[C@H](C)C(=O)N(C)[C@@H](CC(C)C)C(=O)N(C)[C@@H](CC(C)C)C(=O)N(C)[C@@H](C(C)C)C(=O)N1C [Compound C68] (cyclo([MeBmt][Abu][Sar][NMeNle]L[NMeL]L[dA][NMeL][NMeL][NMeV]))
5 | 0.03 | < 2000 | 99.97 | C/C=C/C[C@@H](C)[C@@H](O)[C@H]1C(=O)N[C@@H](CC)C(=O)N(C)CC(=O)N(C)[C@@H]([C@@H](C)CC)C(=O)N[C@@H](C(C)(C)C)C(=O)N(C)[C@@H](C)C(=O)N[C@@H](CC(C)C)C(=O)N[C@H](C)C(=O)N(C)[C@@H](CC(C)C)C(=O)N(C)[C@@H](CC(C)C)C(=O)N(C)[C@@H](C(C)C)C(=O)N1C [Compound C69] (cyclo([MeBmt][Abu][Sar][NMeI][Tle][NMeA]L[dA][NMeL][NMeL][NMeV]))
6 | 0.05 | < 2000 | 99.95 | C/C=C/C[C@@H](C)[C@@H](O)[C@H]1C(=O)N[C@@H](CC)C(=O)N(C)CC(=O)N(C)[C@@H](C)C(=O)N[C@@H](C(C)(C)C)C(=O)N(C)[C@@H](C)C(=O)N[C@@H](CC(C)C)C(=O)N[C@H](C)C(=O)N(C)[C@@H](CC(C)C)C(=O)N(C)[C@@H](CC(C)C)C(=O)N(C)[C@@H](C(C)C)C(=O)N1C [Compound C70] (cyclo([MeBmt][Abu][Sar][NMeA][Tle][NMeA]L[dA][NMeL][NMeL][NMeV]))
7 | −0.05 | < 2000 | 100.05 | C/C=C/C[C@@H](C)[C@@H](O)[C@H]1C(=O)N[C@@H](CC)C(=O)N(C)CC(=O)N(C)[C@H](C)C(=O)N[C@@H](C(C)(C)C)C(=O)N(C)[C@@H](C)C(=O)N[C@@H](CC(C)C)C(=O)N[C@H](C)C(=O)N(C)[C@@H](CC(C)C)C(=O)N(C)[C@@H](CC(C)C)C(=O)N(C)[C@@H](C(C)C)C(=O)N1C [Compound C71] (cyclo([MeBmt][Abu][Sar][dNMeA][Tle][NMeA]L[dA][NMeL][NMeL][NMeV]))
8 | 2.78 | < 2000 | 97.22 | C/C=C/C[C@@H](C)[C@@H](O)[C@H]1C(=O)N[C@@H](CC)C(=O)N(C)CC(=O)N(C)[C@@H](Cc2ccccc2)C(=O)N[C@@H](C(C)(C)C)C(=O)N(C)[C@@H](C)C(=O)N[C@@H](CC(C)C)C(=O)N[C@H](C)C(=O)N(C)[C@@H](CC(C)C)C(=O)N(C)[C@@H](CC(C)C)C(=O)N(C)[C@@H](C(C)C)C(=O)N1C [Compound C72] (cyclo([MeBmt][Abu][Sar][NMeF][Tle][NMeA]L[dA][NMeL][NMeL][NMeV]))
9 | 0.01 | < 2000 | 99.99 | C/C=C/C[C@@H](C)[C@@H](O)[C@H]1C(=O)N[C@@H](CC)C(=O)N(C)CC(=O)N(C)CC(=O)N[C@@H](C(C)(C)C)C(=O)N(C)[C@@H](C)C(=O)N[C@@H](CC(C)C)C(=O)N[C@H](C)C(=O)N(C)[C@@H](CC(C)C)C(=O)N(C)[C@@H](CC(C)C)C(=O)N(C)[C@@H](C(C)C)C(=O)N1C [Compound C73] (cyclo([MeBmt][Abu][Sar][Sar][Tle][NMeA]L[dA][NMeL][NMeL][NMeV]))
10 | 4.92 | < 2000 | 95.08 | C/C=C/C[C@@H](C)[C@@H](O)[C@H]1C(=O)N[C@@H](CC)C(=O)N(C)CC(=O)N(C)[C@@H](CC(C)C)C(=O)N[C@@H](C(C)(C)C)C(=O)N(C)[C@@H](C)C(=O)N[C@@H](CC(C)C)C(=O)N[C@H](C)C(=O)N(C)[C@@H](CC(C)C)C(=O)N(C)[C@@H](CC(C)C)C(=O)N(C)[C@@H](C(C)C)C(=O)N1C [Compound C74] (cyclo([MeBmt][Abu][Sar][NMeL][Tle][NMeA]L[dA][NMeL][NMeL][NMeV]))
11 | 3.88 | < 2000 | – | C/C=C/C[C@@H](C)[C@@H](O)[C@H]1C(=O)N[C@@H](CC)C(=O)N(C)CC(=O)N(C)[C@@H]([C@@H](C)O)C(=O)N[C@@H](C(C)(C)C)C(=O)N(C)[C@@H](C)C(=O)N[C@@H](CC(C)C)C(=O)N[C@H](C)C(=O)N(C)[C@@H](CC(C)C)C(=O)N(C)[C@@H](CC(C)C)C(=O)N(C)[C@@H](C(C)C)C(=O)N1C [Compound C75] (cyclo([MeBmt][Abu][Sar][NMeT][Tle][NMeA]L[dA][NMeL][NMeL][NMeV]))
12 | 5.09 | < 2000 | 94.91 | C/C=C/C[C@@H](C)[C@@H](O)[C@H]1C(=O)N[C@@H](CC)C(=O)N(C)CC(=O)N(C)[C@@H](Cc2ccc(O)cc2)C(=O)N[C@@H](C(C)(C)C)C(=O)N(C)[C@@H](C)C(=O)N[C@@H](CC(C)C)C(=O)N[C@H](C)C(=O)N(C)[C@@H](CC(C)C)C(=O)N(C)[C@@H](CC(C)C)C(=O)N(C)[C@@H](C(C)C)C(=O)N1C [Compound C76] (cyclo([MeBmt][Abu][Sar][NMeY][Tle][NMeA]L[dA][NMeL][NMeL][NMeV]))
13 | 0.44 | < 2000 | – | C/C=C/C[C@@H](C)[C@@H](O)[C@H]1C(=O)N[C@@H](CC)C(=O)N(C)CC(=O)N(C)[C@@H](C(C)C)C(=O)N[C@@H](C(C)(C)C)C(=O)N(C)[C@@H](C)C(=O)N[C@@H](CC(C)C)C(=O)N[C@H](C)C(=O)N(C)[C@@H](CC(C)C)C(=O)N(C)[C@@H](CC(C)C)C(=O)N(C)[C@@H](C(C)C)C(=O)N1C [Compound C77] (cyclo([MeBmt][Abu][Sar][NMeV][Tle][NMeA]L[dA][NMeL][NMeL][NMeV]))
14 | 1.42 | < 2000 | 98.58 | C/C=C/C[C@@H](C)[C@@H](O)[C@H]1C(=O)N[C@@H](CC)C(=O)N(C)CC(=O)N(C)[C@@H](CCC)C(=O)N[C@@H](C(C)(C)C)C(=O)N(C)[C@@H](C)C(=O)N[C@@H](CC(C)C)C(=O)N[C@H](C)C(=O)N(C)[C@@H](CC(C)C)C(=O)N(C)[C@@H](CC(C)C)C(=O)N(C)[C@@H](C(C)C)C(=O)N1C [Compound C78] (cyclo([MeBmt][Abu][Sar][NMeNva][Tle][NMeA]L[dA][NMeL][NMeL][NMeV]))
15 | 3.24 | < 2000 | 96.76 | C/C=C/C[C@@H](C)[C@@H](O)[C@H]1C(=O)N[C@@H](CC)C(=O)N(C)CC(=O)N(C)[C@H](C(C)C)C(=O)N[C@@H](C(C)(C)C)C(=O)N(C)[C@@H](C)C(=O)N[C@@H](CC(C)C)C(=O)N[C@H](C)C(=O)N(C)[C@@H](CC(C)C)C(=O)N(C)[C@@H](CC(C)C)C(=O)N(C)[C@@H](C(C)C)C(=O)N1C [Compound C79] (cyclo([MeBmt][Abu][Sar][dNMeV][Tle][NMeA]L[dA][NMeL][NMeL][NMeV]))
16 | 3.35 | < 2000 | 96.65 | C/C=C/C[C@@H](C)[C@@H](O)[C@H]1C(=O)N[C@@H](CC)C(=O)N(C)CC(=O)N(C)[C@@H](CCCC)C(=O)N[C@@H](C(C)(C)C)C(=O)N(C)[C@@H](C)C(=O)N[C@@H](CC(C)C)C(=O)N[C@H](C)C(=O)N(C)[C@@H](CC(C)C)C(=O)N(C)[C@@H](CC(C)C)C(=O)N(C)[C@@H](C(C)C)C(=O)N1C [Compound C80] (cyclo([MeBmt][Abu][Sar][NMeNle][Tle][NMeA]L[dA][NMeL][NMeL][NMeV]))

Row | SMILES | % signal [%] | IC50 [nM] | % inhibition of CsA binding to Cyclophilin A [%]
17 | C/C=C/C[C@@H](C)[C@@H](O)[C@H]1C(=O)N[C@@H](CC)C(=O)N(C)CC(=O)N(C)[C@@H]([C@@H](C)CC)C(=O)N[C@@H](C(C)C)C(=O)N(C)[C@@H](C)C(=O)N[C@@H](CC(C)C)C(=O)N[C@H](C)C(=O)N(C)[C@@H](CC(C)C)C(=O)N(C)[C@@H](CC(C)C)C(=O)N(C)[C@@H](C(C)C)C(=O)N1C [Compound C81] (cyclo([MeBmt][Abu][Sar][NMeI]V[NMeA]L[dA][NMeL][NMeL][NMeV])) | 0.76 | < 2000 | 99.24
